In patent publication US11384060B2, “Amide compounds and use thereof” (ALPHALA CO., LTD., priority 2017, dated 2022):

How the values were obtained:
[1] = target: T1, glucagon receptor (GCGR) overexpressed CHO-K1 cells or human primary hepatocytes (Homo sapiens, UniProt P47871); experiment: Glucagon cAMP inhibition assay (Cisbio cAMP Dynamic 2 HTRF); format: cell-based; conditions: inhibition of glucagon (EC50 concentration) induced cAMP production
T1 construct: expressed in transfected cells; host or cells: GCGR overexpressed CHO-K1 cells or human primary hepatocytes (endogenous receptor)
Summary of the method: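 HTRF read-out of glucagon-induced cAMP, with IC50 from non-linear regression. Cells (GCGR CHO-K1 or human primary hepatocytes) in HBSS/0.1% BSA/800 nM IBMX took compound dilutions for 30 min (final DMSO 1%), then EC50-level glucagon for 30 min at room temperature, then a 60 min lysis/detection step.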

glucagon receptor (GCGR) = target: T2, glucagon receptor (GCGR) (Homo sapiens, UniProt P47871); experiment: I125-glucagon binding assay (competition, GCGR membrane fractions); conditions: competition with I125-glucagon 0.0625 nM, membrane fractions of GCGR overexpressed CHO-K1 cells
T2 construct: expressed in transfected cells; host or cells: CHO-K1 cells overexpressing GCGR (membrane fractions)
Summary of the method: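 Competition of 0.0625 nM (final) I^125-glucagon for 30 min at 25° C, after 5 min compound preincubation, using 7.5 μg/well GCGR-overexpressing CHO-K1 membranes in 50 mM Tris pH 7.4, 0.5% BSA. Filtration onto PEI-coated GF/B, micro-beta counting, and non-linear regression gave IC50.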

T2 sequence (P47871 26-477): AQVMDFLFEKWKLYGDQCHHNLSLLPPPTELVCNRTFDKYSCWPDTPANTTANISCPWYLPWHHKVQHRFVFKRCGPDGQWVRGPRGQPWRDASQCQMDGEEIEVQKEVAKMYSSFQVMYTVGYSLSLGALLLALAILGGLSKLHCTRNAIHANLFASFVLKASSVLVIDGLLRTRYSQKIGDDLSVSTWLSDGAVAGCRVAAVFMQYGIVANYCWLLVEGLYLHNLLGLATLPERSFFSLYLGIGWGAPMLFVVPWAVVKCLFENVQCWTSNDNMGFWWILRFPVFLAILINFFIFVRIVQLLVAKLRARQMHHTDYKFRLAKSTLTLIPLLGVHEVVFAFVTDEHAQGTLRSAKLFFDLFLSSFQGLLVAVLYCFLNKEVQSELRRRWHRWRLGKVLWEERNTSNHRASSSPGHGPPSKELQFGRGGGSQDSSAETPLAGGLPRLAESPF
T1 sequence (P47871 26-477): as above

IC50 cAMP [1]	IC50 (glucagon receptor (GCGR))	Structure (SMILES)
80 nM	53 nM	CC(C)(C)[C@@H](COc1ccc(-c2ccc(C(F)(F)F)cc2F)c(Cl)c1)Nc1ccc(C(=O)NCCC(=O)O)cc1 [Compound 3-24, (S)-3-(4-((1-((2-chloro-2′-fluoro-4′-(trifluoromethyl)-[1,1′-biphenyl]-4-yl)oxy)-3,3-dimethylbutan-2-yl)amino)benzamido)propanoic Acid]
626.9 nM	369 nM	CC(C)[C@@H](COc1ccc(-c2ccc(C(F)(F)F)cc2)cc1)Nc1ccc(C(=O)NCCC(=O)O)cn1 [Compound 4-1, (S)-3-(6-((3-methyl-1-((4′-(trifluoromethyl)-[1,1′-biphenyl]-4-yl)oxy)butan-2-yl)amino)nicotinamido)propanoic Acid]
121.3 nM	90 nM	CC(C)[C@@H](COc1ccc(-c2cc3ccccc3o2)cc1)Nc1ccc(C(=O)NCCC(=O)O)cn1 [Compound 4-2, (S)-3-(6-((1-(4-(benzofuran-2-yl)phenoxy)-3-methylbutan-2-yl)amino)nicotinamido)propanoic Acid]
414 nM	610 nM	CC[C@H](C)[C@@H](COc1ccc(-c2ccc(Cl)cc2Cl)cc1)Nc1ccc(C(=O)NCCC(=O)O)cn1 [Compound 4-3, 3-(6-(((2S,3S)-1-((2′,4′-dichloro-[1,1′-biphenyl]-4-yl)oxy)-3-methylpentan-2-yl)amino)nicotinamido)propanoic Acid]
>30000 nM	2390 nM	CC[C@H](C)[C@@H](COc1ccc(-c2nnc(C(C)(C)C)o2)cc1)Nc1ccc(C(=O)NCCC(=O)O)cn1 [Compound 4-4, 3-(6-(((2S,3S)-1-(4-(5-(tert-butyl)-1,3,4-oxadiazol-2-yl)phenoxy)-3-methylpentan-2-yl)amino)nicotinamido)propanoic Acid]
11200 nM	708 nM	CC[C@H](C)[C@@H](COc1ccc(-c2nnc(-c3ccccc3)o2)cc1)Nc1ccc(C(=O)NCCC(=O)O)cn1 [Compound 4-5, 3-(6-(((2S,3S)-3-methyl-1-(4-(5-phenyl-1,3,4-oxadiazol-2-yl)phenoxy)pentan-2-yl)amino)nicotinamido)propanoic Acid]
14405 nM	2040 nM	CC(C)[C@@H](CSc1ccc(-c2cc3ccccc3o2)cc1)Nc1ccc(C(=O)NCCC(=O)O)cc1 [Compound 5-1, (S)-3-(4-((1-((4-(benzofuran-2-yl)phenyl)thio)-3-methylbutan-2-yl)amino)benzamido)propanoic Acid]
2465 nM	1190 nM	CC[C@H](C)[C@@H](CSc1ccc(-c2ccc(C(F)(F)F)cc2)cc1)Nc1ccc(C(=O)NCCC(=O)O)cc1 [Compound 5-2, 3-(4-(((2S,3S)-3-methyl-1-((4′-(trifluoromethyl)-[1,1′-biphenyl]-4-yl)thio)pentan-2-yl)amino)benzamido)propanoic Acid]
946.9 nM	400 nM	CC[C@H](C)[C@@H](CSc1ccc(-c2cc3ccccc3o2)cc1)Nc1ccc(C(=O)NCCC(=O)O)cc1 [Compound 5-3, 3-(4-(((2S,3S)-1-((4-(benzofuran-2-yl)phenyl)thio)-3-methylpentan-2-yl)amino)benzamido)propanoic Acid]
204.2 nM	391 nM	CC(C)[C@@H](COc1ccc(-c2cc3ccccc3o2)cc1)N(C)c1ccc(C(=O)NCCC(=O)O)cc1 [Compound 6-1, (S)-3-(4-((1-(4-(benzofuran-2-yl)phenoxy)-3-methylbutan-2-yl)(methyl)amino)benzamido)propanoic Acid]
164.3 nM	645 nM	CCN(c1ccc(C(=O)NCCC(=O)O)cc1)[C@H](COc1ccc(-c2cc3ccccc3o2)cc1)C(C)C [Compound 6-2, (S)-3-(4-((1-(4-(benzofuran-2-yl)phenoxy)-3-methylbutan-2-yl)(ethyl)amino)benzamido)propanoic Acid]
3859 nM	479 nM	CCOC[C@@H](COc1ccc(-c2cc3ccccc3o2)cc1)Nc1ccc(C(=O)NCCC(=O)O)cc1 [Compound 6-3, (S)-3-(4-((1-(4-(benzofuran-2-yl)phenoxy)-3-ethoxypropan-2-yl)amino)benzamido)propanoic Acid]
495 nM	93 nM	CC(C)[C@@H](COc1cc(F)c(-c2cc3ccccc3o2)c(F)c1)Nc1ccc(C(=O)NCCC(=O)O)cc1 [Compound 7-1, (S)-3-(4-((1-(4-(benzofuran-2-yl)-3,5-difluorophenoxy)-3-methylbutan-2-yl)amino)benzamido)propanoic Acid]
201 nM	177 nM	CC(C)[C@@H](COc1cc(F)c(-c2ccc(C(F)(F)F)cc2Cl)c(F)c1)Nc1ccc(C(=O)NCCC(=O)O)cc1 [Compound 7-2, (S)-3-(4-((1-((2′-chloro-2,6-difluoro-4′-(trifluoromethyl)-[1,1′-biphenyl]-4-yl)oxy)-3-methylbutan-2-yl)amino)benzamido)propanoic Acid]
140 nM	107 nM	CC(C)[C@@H](COc1cc(F)c(-c2ccc(C(F)(F)F)cc2)c(F)c1)Nc1ccc(C(=O)NCCC(=O)O)cc1 [Compound 7-3, (S)-3-(4-((1-((2,6-difluoro-4′-(trifluoromethyl)-[1,1′-biphenyl]-4-yl)oxy)-3-methylbutan-2-yl)amino)benzamido)propanoic Acid]
165 nM	182 nM	CC(C)[C@@H](COc1cc(F)c(-c2ccc(C(F)(F)F)cc2F)c(F)c1)Nc1ccc(C(=O)NCCC(=O)O)cc1 [Compound 7-4, (S)-3-(4-((3-methyl-1-((2,2′,6-trifluoro-4′-(trifluoromethyl)-[1,1′-biphenyl]-4-yl)oxy)butan-2-yl)amino)benzamido)propanoic Acid]
811 nM	75 nM	CC(C)C[C@@H](COc1cc(F)c(-c2ccc(C(F)(F)F)cc2Cl)c(F)c1)Nc1ccc(C(=O)NCCC(=O)O)cc1 [Compound 7-5, (S)-3-(4-((1-((2′-chloro-2,6-difluoro-4′-(trifluoromethyl)-[1,1-biphenyl]-4-yl)oxy)-4-methylpentan-2-yl)amino)benzamido)propanoic Acid]
371 nM	144 nM	CC(C)C[C@@H](COc1cc(F)c(-c2ccc(C(F)(F)F)cc2)c(F)c1)Nc1ccc(C(=O)NCCC(=O)O)cc1 [Compound 7-6, (S)-3-(4-((1-((2,6-difluoro-4′-(trifluoromethyl)-[1,1′-biphenyl]-4-yl)oxy)-4-methylpentan-2-yl)amino)benzamido)propanoic Acid]
689 nM	307 nM	CC(C)C[C@@H](COc1cc(F)c(-c2ccc(C(F)(F)F)cc2F)c(F)c1)Nc1ccc(C(=O)NCCC(=O)O)cc1 [Compound 7-7, (S)-3-(4-((4-methyl-1-((2,2′,6-trifluoro-4′-(trifluoromethyl)-[1,1′-biphenyl]-4-yl)oxy)pentan-2-yl)amino)benzamido)propanoic Acid]
329 nM	49 nM	CC(C)C[C@@H](COc1cc(F)c(-c2ccc(Cl)cc2Cl)c(F)c1)Nc1ccc(C(=O)NCCC(=O)O)cc1 [Compound 7-8, (S)-3-(4-((1-((2′,4′-dichloro-2,6-difluoro-[1,1′-biphenyl]-4-yl)oxy)-4-methylpentan-2-yl)amino)benzamido)propanoic Acid]
816 nM	262 nM	CC(C)C[C@@H](COc1cc(F)c(-c2cc(Cl)cc(Cl)c2)c(F)c1)Nc1ccc(C(=O)NCCC(=O)O)cc1 [Compound 7-9, (S)-3-(4-((1-((3′,5′-dichloro-2,6-difluoro-[1,1′-biphenyl]-4-yl)oxy)-4-methylpentan-2-yl)amino)benzamido)propanoic Acid]
730.9 nM	145 nM	CC(C)C[C@@H](COc1cc(F)c(-c2cc3ccccc3o2)c(F)c1)Nc1ccc(C(=O)NCCC(=O)O)cc1 [Compound 7-10, (S)-3-(4-((1-(4-(benzofuran-2-yl)-3,5-difluorophenoxy)-4-methylpentan-2-yl)amino)benzamido)propanoic Acid]
209 nM	74 nM	CC(C)[C@@H](COc1cc(F)c(-c2ccc(Cl)cc2Cl)c(F)c1)Nc1ccc(C(=O)NCCC(=O)O)cc1 [Compound 7-11, (S)-3-(4-((1-((2′,4′-dichloro-2,6-difluoro-[1,1′-biphenyl]-4-yl)oxy)-3-methylbutan-2-yl)amino)benzamido)propanoic Acid]
61.9 nM	112 nM	CC(C)[C@@H](COc1ccc(-c2ccc(C(F)(F)F)cc2F)c(F)c1)Nc1ccc(C(=O)NCCC(=O)O)cc1 [Compound 8-1, (S)-3-(4-((1-((2,2′-difluoro-4′-(trifluoromethyl)-[1,1′-biphenyl]-4-yl)oxy)-3-methylbutan-2-yl)amino)benzamido)propanoic Acid]
12144 nM	1710 nM	CC(C)[C@@H](COc1ccc(-c2ccc(C(F)(F)F)cc2F)c(F)c1)Nc1ccc(C(=O)NCCS(=O)(=O)O)cc1 [Compound 8-2, (S)-2-(4-((1-((2,2′-difluoro-4′-(trifluoromethyl)-[1,1′-biphenyl]-4-yl)oxy)-3-methylbutan-2-yl)amino)benzamido)ethane-1-sulfonic Acid]
84.4 nM	83 nM	CC(C)[C@@H](COc1ccc(-c2cc3ccccc3o2)c(F)c1)Nc1ccc(C(=O)NCCC(=O)O)cc1 [Compound 8-3, (S)-3-(4-((1-(4-(benzofuran-2-yl)-3-fluorophenoxy)-3-methylbutan-2-yl)amino)benzamido)propanoic Acid]
